Where no end group is shown, it is not given here.

As usually defined, the half-life is how long it takes for the measured level to halve. The fraction remaining is what is left of the initial amount, in per cent.

Data set [1] can be described thus: Degradation of apelin peptides by plasma from fasted normal NIH Swiss mice (rp-HPLC, MALDI-TOF MS). In kind it is in vitro ADME. The protocol:
Degradation of Apelin Peptides by Plasma from Fasted Normal NIH Swiss Mice […] The enzymatic reaction was stopped by adding 50 μl of 10% TFA (0.1% v/v; Sigma-Aldrich Ltd, (Poole, Dorset, UK) and frozen at -20° C. until separation. The terminated reaction products were then applied to an analytical Vydac C-8 column (4.6×150 mm; Phenomenex, Macclesfield, Cheshire, UK) for rp-HPLC analysis. The absorbance was monitored at 214 nm using a […] UV 2000 detector (Thermoquest Limited, Manchester, UK) and the traces were recorded by Thermo Electron ChromQuest data collection software (version 4). HPLC peak fractions were collected manually and subjected to MALDI-TOF mass spectrometry for peptide identification. Degradation profile of various apelin-13 related analogues: plasma incubations (4 h) were separated on a Vydac C-8 analytical HPLC column and all peaks were collected prior to analysis by MALDI-TOF mass spectrometry. Degradation fragments, actual molecular weights (Mr) and retention times (RT) are shown. Theoretical molecular weights of each fragment are shown in brackets. […] Degradation fragments, theoretical molecular weights (Mr) and retention times (RT) are shown. Theoretical molecular weights of each fragment are shown in brackets.

Data set [2] deals with NIH Swiss mice fed a high-fat diet for 150 days. Description: Acute and delayed i.p. glucose tolerance test, blood glucose and plasma insulin. The class given is in vivo. On the procedure:
Plasma glucose and plasma insulin concentrations were measured prior to and after i.p. administration of glucose alone (18 mmol/kg body weight), or in combination with apelin analogues (25 nmol/kg body weight) in 18 h fasted mice fed a high-fat diet for 150 days. Values represent mean±SEM for eight mice (n=8). *P<0.05, **P<0.01 and ***P<0.001 compared to glucose alone. FIG. 6 illustrates effect of i.p. administration of glucose alone (18 mmol/kg body weight), ([…])apelin-13 and ([…])apelin-13 alone or in combination (each 25 nmol/kg body weight) on (A) blood glucose and (B) plasma insulin in 18 h fasted mice fed a high-fat diet for 150 days. Values represent mean±SEM for eight mice (n=8). *p<0.05 and **p<0.01 compared to glucose alone, ^+P<0.05 compared to ([…])apelin-13, ^∇P<0.05 and ^∇∇P<0.01 compared to ([…])apelin-13. FIG. 10 illustrates tests conducted 2 h after administration of apelin related analogues (25 nmol/kg body wt) in 18 h fasted mice fed a high-fat diet for 150 days. (A) Blood glucose and (B) plasma insulin was measured before and after i.p. administration of glucose (18 mmol/kg body wt) alone or in combination with apelin analogues. Values represent mean±SEM for eight mice (n=8). *P<0.05 and **P<0.01 compared to glucose alone. FIG. 11 illustrates tests conducted 8 h after administration of apelin related analogues (25 nmol/kg body wt) in 18 h fasted mice fed a high-fat diet for 150 days. (A) Blood glucose and (B) plasma insulin was measured before and after i.p. administration of glucose (18 mmol/kg body wt) alone or in combination with apelin analogues. Values represent mean±SEM for eight mice (n=8). *P<0.05 and **P<0.01 compared to glucose alone. FIG. 12 illustrates acute effects of fatty acid modified apelin analogues on glucose-lowering and insulin release in high fat fed Swiss NIH mice with dietary-induced diabetes. (A) Blood glucose and (B) plasma insulin concentrations were measured prior to and after i.p. administration of glucose alone (18 mmol/kg body weight), or in combination with apelin analogues (25 nmol/kg body weight) in 18 h fasted mice fed a high-fat diet for 150 days. Values represent mean±SEM for eight mice (n=8). *P<0.05, compared to glucose alone. FIG. 13 illustrates tests conducted 16 h after administration of fatty acid apelin analogues (25 nmol/kg body wt) in mice fed a high-fat diet for 150 days. (A) Blood glucose and (B) plasma insulin was measured before and after i.p. administration of glucose (18 mmol/kg body wt) alone or in combination with apelin analogues. Values represent mean±SEM for eight mice (n=8). *P<0.05, **P<0.01 and ***P<0.001 compared to glucose alone. NIH Swiss mice (Harlan UK Ltd., Blackthorne, UK) were derived from a nucleus colony obtained from the National Institute of Health, Bethesda, Md., USA. One group of mice were maintained on a standard rodent diet (10% fat, 30% protein, 60% carbohydrate; percent of total energy 12.99 kJ/g, Trouw Nutrition, Cheshire, UK) and used as a model of normal glycaemia. Other NIH Swiss mice were maintained on a high fat diet (45% fat, 20% protein, 35% carbohydrate; percent of total energy 26.15 […], UK) from 8 weeks of age for 150 days to produce a model of diet induced obesity-diabetes. […] All mice were housed in an air-conditioned room maintained at 22±2° C. with a 12 h light: 12 h dark cycle (08:00-20:00 h), were singly caged, and selected for experimental groups according to body weight and non-fasted blood glucose. Drinking water and diet were freely available. All animal studies were performed in accordance with the UK Animals (Scientific Procedures) Act 1986. For acute in vivo studies, blood samples were collected from the cut tip of the tail vain of fasted, conscious mice into fluoride/heparin coated glucose microcentrifuge tubes (Sarstedt, Germany) immediately prior to (t=0) and at 15, 30, 60 and 105 min following i.p. injection of glucose ([…]).

The mark [3] stands for this setting: NIH Swiss, mouse, plasma, pH 7.4.
The mark [4] stands for this setting: acute, peptide 25 nmol/kg i.p. with glucose 18 mmol/kg, Table 4.
[5] abbreviates: following a 2 h delay, 25 nmol/kg.
[6] abbreviates: following a 8 h delay, 25 nmol/kg.
The mark [7] stands for this setting: acute, alone and in combination, each 25 nmol/kg i.p. with glucose, Table 5.
The mark [8] stands for this setting: fatty acid derived agonists, 16 h delayed i.p. glucose tolerance test, 25 nmol/kg.
Where [9] appears, read: fatty acid derived agonists, acute i.p. glucose tolerance test, 25 nmol/kg.

Consider `CSCC[C@H](NC(=O)[C@@H]1CCCN1C(=O)CNC(=O)[C@H](CCCCN)NC(=O)[C@H](Cc1c[nH]cn1)NC(=O)[C@H](CO)NC(=O)[C@H](CC(C)C)NC(=O)[C@H](CCCNC(=N)N)NC(=O)[C@@H]1CCCN1C(=O)[C@H](CCCNC(=N)N)NC(=O)[C@@H]1CCC(=O)N1)C(=O)N1CCC[C@H]1C(=O)N[C@@H](Cc1ccc(O)cc1)C(=O)O` [pGlu(Tyr^13)apelin-13, pGlu (Tyr^13)apelin-13], for which, in data set [1], the “Degradation fragment, Peak 1” value is reported as “(1-5)”; the “Degradation fragment, Peak 2” value was “(1-6)”; the “Degradation fragment, Peak 3” value is on record as “(1-12)”; the “Rank order of stability” value is 4. Also, in data set [1] (setting [3]), the half-life at 263 µg/mL was 12.2 h and the share remaining at 4 h, 263 µg/mL stood at 79 ± 0.6%. The “Rank order on basis of anti-hyperglycaemic efficacy” value (“Rank order on basis” for short) in data set [2] (acute, Table 4) turned out to be 3. Moreover, in data set [2] (setting [4]), the “Blood glucose as percent of glucose-alone control (lower = stronger glucose lowering)” value was 71% (*) and the “Insulin secretion, where glucose alone = 100%” value is recorded as 138% (**). In addition, the “Rank order on basis” value in data set [2] (following a 2 h delay) was 3. In addition, in data set [2] (setting [5]), the “Blood glucose as percent of glucose-alone control (lower = stronger glucose lowering)” value is recorded as 78% (**) and the “Insulin secretion, where glucose alone = 100%” value is 142% (**). Besides, the “Rank order on basis” value in data set [2] (following a 8 h delay) came to 2. In data set [2] (setting [6]), the “Blood glucose as percent of glucose-alone control (lower = stronger glucose lowering)” value is given as 86% (*) and the “Insulin secretion, where glucose alone = 100%” value worked out at 112%.

`CSCC[C@H](NC(=O)[C@@H]1CCCN1C(=O)CNC(=O)[C@H](CCCCN)NC(=O)[C@H](Cc1c[nH]cn1)NC(=O)[C@H](CO)NC(=O)[C@H](CC(C)C)NC(=O)[C@H](CCCNC(=N)N)NC(=O)[C@@H]1CCCN1C(=O)[C@H](CCCNC(=N)N)NC(=O)[C@@H](N)CCC(N)=O)C(=O)N1CCC[C@H]1C(=O)N[C@@H](Cc1ccc(O)cc1)C(=O)O` [(Tyr^13)apelin-13]: in data set [1], the “Degradation fragment, Peak 1” value was “(Tyr^13)apelin-13 (1-7)”; the “Degradation fragment, Peak 2” value is “(Tyr^13)apelin-13 (1-12)”; the “Rank order of stability” value is listed as 10. In data set [1] (setting [3]), this compound gave a half-life at 263 µg/mL of 8.5 h and a fraction remaining at 4 h, 263 µg/mL of 76.7 ± 1.3%. In data set [2] (acute, Table 4), the “Rank order on basis” value worked out at 4. Moreover, in data set [2] (setting [7]), the “Glucose lowering, where glucose alone = 100%” value is given as 77% (*) and the “Insulin secretion, where glucose alone = 100%” value is given as 131% (*). Also, in data set [2] (setting [4]), the “Blood glucose as percent of glucose-alone control (lower = stronger glucose lowering)” value is on record as 77% (*) and the “Insulin secretion, where glucose alone = 100%” value is recorded as 131% (*). For the same compound, the “Rank order on basis” value in data set [2] (following a 2 h delay) was found to be 4. For the same compound, in data set [2] (setting [5]), the “Blood glucose as percent of glucose-alone control (lower = stronger glucose lowering)” value is 85% ^ and the “Insulin secretion, where glucose alone = 100%” value came to 116% ^. In addition, the “Rank order on basis” value in data set [2] (following a 8 h delay) turned out to be 4. Also, in data set [2] (setting [6]), the “Blood glucose as percent of glucose-alone control (lower = stronger glucose lowering)” value was 91% ^ and the “Insulin secretion, where glucose alone = 100%” value is reported as 104%.

As to `CSCC[C@H](NC(=O)[C@@H]1CCCN1C(=O)CNC(=O)[C@H](CCCCN)NC(=O)[C@H](Cc1c[nH]cn1)NC(=O)[C@H](CO)NC(=O)[C@H](CC(C)C)NC(=O)[C@H](CCCNC(=N)N)NC(=O)[C@@H]1CCCN1C(=O)[C@H](CCCNC(=N)N)NC(=O)[C@@H]1CCC(=O)N1)C(=O)N1CCC[C@H]1C(=O)N[C@H](C(=O)O)C(C)C` [pGlu(Val^13)apelin-13, pGlu (Val^13)apelin-13], in data set [1], the “Degradation fragment, Peak 1” value is listed as “(1-6)”; the “Degradation fragment, Peak 2” value is reported as “(1-12)”; the “Rank order of stability” value came to 9. In data set [1] (setting [3]), the half-life at 263 µg/mL is 9.8 h and the fraction remaining at 4 h, 263 µg/mL came out at 76.2 ± 1.9%. The “Rank order on basis” value in data set [2] (acute, Table 4) was 8. Moreover, in data set [2] (setting [4]), the “Blood glucose as percent of glucose-alone control (lower = stronger glucose lowering)” value was 116% (*) and the “Insulin secretion, where glucose alone = 100%” value is given as 75% (**).

On to “LVQPRGSRNGPGPWQGGRRKFRRQRPRLSHKGPMPF [Apelin-36, reference compound]”, for which the “Rank order of stability” value in data set [1] stood at 15. For the same compound, in data set [1] (setting [3]), the half-life at 263 µg/mL is 1.3 h and the amount remaining at 4 h, 263 µg/mL was 5.5 ± 0.6%.

Regarding `CSCC[C@H](NC(=O)[C@@H]1CCCN1C(=O)CNC(=O)[C@H](CCCCN)NC(=O)[C@H](Cc1cnc[nH]1)NC(=O)[C@H](CO)NC(=O)[C@H](CC(C)C)NC(=O)[C@H](CCCNC(=N)N)NC(=O)[C@@H]1CCCN1C(=O)[C@H](CCCNC(=N)N)NC(=O)[C@@H]1CCC(=O)N1)C(=O)N1CCC[C@H]1C(=O)N[C@@H](C)C(=O)O` [pGlu(Ala^13)apelin-13, pGlu (Ala^13)apelin-13], in data set [1], the “Degradation fragment, Peak 1” value is recorded as “(1-7)” and the “Rank order of stability” value was 6. In data set [1] (setting [3]), the half-life at 263 µg/mL was 11.1 h and the share remaining at 4 h, 263 µg/mL was found to be 74.4 ± 5.2%. In data set [2] (acute, Table 4), the “Rank order on basis” value is listed as 7. In addition, in data set [2] (setting [4]), the “Blood glucose as percent of glucose-alone control (lower = stronger glucose lowering)” value is reported as 110% ^ and the “Insulin secretion, where glucose alone = 100%” value is recorded as 86% (*).

As for `CSCC[C@H](NC(=O)[C@@H]1CCCN1C(=O)CNC(=O)[C@H](CCCCN)NC(=O)[C@H](Cc1c[nH]cn1)NC(=O)[C@H](CO)NC(=O)[C@H](CC(C)C)NC(=O)[C@H](CCCNC(=N)N)NC(=O)[C@@H]1CCCN1C(=O)[C@@H](N)CCCNC(=N)N)C(=O)N1CCC[C@H]1C(=O)N[C@@H](Cc1ccccc1)C(=O)O` [Apelin-12, reference compound], in data set [1], the “Rank order of stability” value came to 13. The fraction remaining at 4 h, 263 µg/mL in data set [1] (setting [3]) amounted to 39.5 ± 1.9%. In addition, the half-life in data set [1] (mouse, plasma) was 3.4 h.

Regarding `CCCCCCCCCCCCCCCC(=O)N[C@@H](CCC(=O)NCCCC[C@H](NC(=O)[C@H](Cc1c[nH]cn1)NC(=O)[C@H](CO)NC(=O)[C@H](CC(C)C)NC(=O)[C@H](CCCNC(=N)N)NC(=O)[C@@H]1CCCN1C(=O)[C@H](CCCNC(=N)N)NC(=O)[C@@H](N)CCC(N)=O)C(=O)NCC(=O)N1CCC[C@H]1C(=O)N[C@@H](CCSC)C(=O)N1CCC[C@H]1C(=O)N[C@@H](Cc1ccc(O)cc1)C(=O)O)C(=O)O` [Lys^8GluPAL(Tyr^13)apelin-13], the “Rank order of stability” value in data set [1] is “=1”. For the same compound, in data set [1] (NIH Swiss, mouse, plasma, 263 µg/mL, pH 7.4), the “Half-life (t1/2)” value is >24 h. For the same compound, in data set [1] (setting [3]), the half-life at 263 µg/mL is > 24 h and the share remaining at 4 h, 263 µg/mL came to 100%. Besides, in data set [2] (fatty acid derived agonists, 16 h delay), the “Rank order on basis” value turned out to be 3. In data set [2] (setting [8]), the “Blood glucose as percent of glucose-alone control (lower = stronger glucose lowering)” value is reported as 91% ^ and the “Insulin secretion, where glucose alone = 100%” value is recorded as 126% (*). In data set [2] (fatty acid derived agonists, acute), the “Rank order on basis” value is 3. In addition, in data set [2] (setting [9]), the “Glucose lowering, where glucose alone = 100%” value is reported as 93% and the “Insulin secretion, where glucose alone = 100%” value was determined as 104%.
